Data: paper PMC11335262 (Cellular and Molecular Life Sciences: CMLS, 2024)
Where two headings read alike, the source gives them in different places.

Columns and labels:
α9α10^α9TM2TM3loop = α9α10^α9TM2TM3loop (Rattus norvegicus, UniProt P43144+Q9JLB5, A292S/P291A/S288I/S294N); format: cell-based; conditions: for ACh response, % of response at […] Ca^2+: Vhold -90
α9α10E201Q = α9α10E201Q (Rattus norvegicus, UniProt P43144+Q9JLB5, E201Q); format: cell-based
α9α10^α9extra = α9α10^α9extra (Rattus norvegicus, UniProt P43144+Q9JLB5, A264D/A308T/A312F/A328P/E329N/F253L/F325Y/H335A/I246L/I275V/I304M/I310V/I323L/L250F/L309M/M279L/M285I/M319L/R331H/S258A/V286L/V320I/Y260H); format: cell-based; conditions: for ACh response, % of response at […] Ca^2+: Vhold -90
α9α10E71Q = α9α10E71Q (Rattus norvegicus, UniProt P43144+Q9JLB5, E71Q); format: cell-based
α9α10 nAChR = α9α10 nAChR (Rattus norvegicus, UniProt P43144+Q9JLB5); format: cell-based; conditions: 10 µM ACh; for ACh response, % of responses at […] Ca^2+: Vhold -90
α9α10^α9Nt–TM2TM3loop = α9α10^α9Nt–TM2TM3loop (Rattus norvegicus, UniProt P43144+Q9JLB5); format: cell-based; conditions: for ACh response, % of response at […] Ca^2+: Vhold -90
homomeric α9 nAChR = conditions: cited from earlier work
α9α10E287Q = α9α10E287Q (Rattus norvegicus, UniProt P43144+Q9JLB5, E287Q); format: cell-based
α9α10^α9Nt = α9α10^α9Nt (Rattus norvegicus, UniProt P43144+Q9JLB5, A103S/A128E/A130V/A141L/A146S/A160Y/A165S/A191G/A194S/A39E/A49E/A97Q/D100R/E60Q/E85T/G169N/G178N/G188L/G99D/H138Y/H177Y/H180N/H92T/I67K/K96D/L182V/L205H/L214I/L78A/N199D/N40D/P126S/P127S/P186N/P95R/Q125E/Q53A/R109D/R143T/R151K/R155V/R167Q/R185F/R187A/R203E/R210V/R211K/R212N/R233K/R35S/S129P/S131N/S159T/S192D/T124D/T189D/T215S/T42S/T54V/T87H/V136L/V142I/V184I/V197I/V75I); format: cell-based; conditions: 10 µM ACh; for ACh response, % of response at […] Ca^2+: Vhold -90
α9α10^α9Nt–TM1TM2loop = α9α10^α9Nt–TM1TM2loop (Rattus norvegicus, UniProt P43144+Q9JLB5, A103S/A128E/A130V/A141L/A146S/A160Y/A165S/A191G/A194S/A236S/A237S/A238F/A257S/A39E/A49E/A97Q/C241V/D100R/D263A/E60Q/E85T/F249L/G169N/G178N/G188L/G99D/H138Y/H177Y/H180N/H259Y/H92T/I67K/K96D/L182V/L205H/L214I/L245I/L252F/L78A/N199D/N40D/P126S/P127S/P186N/P95R/Q125E/Q53A/R109D/R143T/R151K/R155V/R167Q/R185F/R187A/R203E/R210V/R211K/R212N/R233K/R35S/S129P/S131N/S159T/S192D/T124D/T189D/T215S/T42S/T54V/T87H/V136L/V142I/V184I/V197I/V240I/V75I); format: cell-based; conditions: 40 µM ACh; for ACh response, % of response at […] Ca^2+: Vhold -90
α9α10^α9Nt–TM2 = α9α10^α9Nt–TM2 (Rattus norvegicus, UniProt P43144+Q9JLB5, A103S/A128E/A130V/A141L/A146S/A160Y/A165S/A191G/A194S/A236S/A237S/A238F/A257S/A39E/A49E/A97Q/C241V/D100R/D263A/E60Q/E85T/F249L/G169N/G178N/G188L/G99D/H138Y/H177Y/H180N/H259Y/H92T/I284M/I67K/K96D/L182V/L205H/L214I/L245I/L252F/L278M/L285V/L78A/N199D/N40D/P126S/P127S/P186N/P95R/Q125E/Q53A/R109D/R143T/R151K/R155V/R167Q/R185F/R187A/R203E/R210V/R211K/R212N/R233K/R35S/S129P/S131N/S159T/S192D/T124D/T189D/T215S/T42S/T54V/T87H/V136L/V142I/V184I/V197I/V240I/V274I/V75I); format: cell-based; conditions: 30 µM ACh; for ACh response, % of response at […] Ca^2+: Vhold -90
[1] = read-out: Ca^2+ IC50, block of responses to 100 µM ACh

Compound: [Ca+2] [Ca^2+, Calcium]
- modulation of ACh-evoked responses by extracellular Ca^2+ (in words) (α9α10^α9TM2TM3loop; 50 µM ACh): not potentiated by extracellular Ca^2+, but instead blocked by this ion
- ACh response, % of response at […] Ca^2+ (α9α10^α9TM2TM3loop; 3 mM Ca^2+, 50 µM ACh): 71.3 ± 5.2%
- ACh response, % of response at […] Ca^2+ (α9α10^α9TM2TM3loop; 3 mM Ca^2+, sub-EC50 25 µM ACh): 46.3 ± 20.9%
- 3 / 0 Ca^2+ ratio of response (α9α10^α9TM2TM3loop; +40 mV, 50 µM ACh): 0.74 ± 0.14
- 3 / 0 Ca^2+ ratio of response (α9α10^α9TM2TM3loop; -90 mV, 50 µM ACh): 0.14 ± 0.02
- ACh response, % of response at […] Ca^2+ (α9α10^α9TM2TM3loop; zero Ca^2+, 50 µM ACh): 401.0 ± 103.4%
- ACh response, % of response at […] Ca^2+ (α9α10^α9TM2TM3loop; zero Ca^2+, sub-EC50 25 µM ACh): 668.7 ± 340.2%
- modulation of ACh-evoked responses by extracellular Ca^2+ (in words) (α9α10E201Q; 100 µM ACh): not potentiated by Ca^2+
- ACh response, % of response at […] Ca^2+ (α9α10E201Q; 3 mM Ca^2+, 100 µM ACh): 74.3 ± 11.2%
- 3 / 0 Ca^2+ ratio of response (α9α10E201Q; +40 mV, 100 µM ACh): 0.53 ± 0.12
- 3 / 0 Ca^2+ ratio of response (α9α10E201Q; -90 mV, 100 µM ACh): 0.18 ± 0.05
- IC50 (α9α10E201Q; [1]): 900 ± 300 µM
- ACh response, % of response at […] Ca^2+ (α9α10E201Q; zero Ca^2+, 100 µM ACh): 201.6 ± 39.7%
- modulation of ACh-evoked responses by extracellular Ca^2+ (in words) (α9α10^α9extra; 10 µM ACh): not potentiated by Ca^2+, and only blocked by increasing Ca^2+ concentrations
- ACh response, % of response at […] Ca^2+ (α9α10^α9extra; 3 mM Ca^2+, 10 µM ACh): 72.3 ± 5.3%
- 3 / 0 Ca^2+ ratio of response (α9α10^α9extra; +40 mV, 10 µM ACh): 0.60 ± 0.08
- 3 / 0 Ca^2+ ratio of response (α9α10^α9extra; -90 mV, 10 µM ACh): 0.20 ± 0.05
- IC50 (α9α10^α9extra; read-out: Ca^2+ IC50, block of responses to 10 µM ACh, -90 mV): 700 ± 200 µM
- ACh response, % of response at […] Ca^2+ (α9α10^α9extra; zero Ca^2+, 10 µM ACh): 217.3 ± 6.3%
- modulation of ACh-evoked responses by extracellular Ca^2+ (in words) (α9α10E71Q; 100 µM ACh): not potentiated by Ca^2+
- ACh response, % of response at […] Ca^2+ (α9α10E71Q; 3 mM Ca^2+, 100 µM ACh): 64.8 ± 2.7%
- 3 / 0 Ca^2+ ratio of response (α9α10E71Q; +40 mV, 100 µM ACh): 1.05 ± 0.29
- 3 / 0 Ca^2+ ratio of response (α9α10E71Q; -90 mV, 100 µM ACh): 0.25 ± 0.05
- IC50 (α9α10E71Q; [1]): 800 ± 100 µM
- ACh response, % of response at […] Ca^2+ (α9α10E71Q; zero Ca^2+, 100 µM ACh): 211.0 ± 35.6%
- modulation of ACh-evoked responses by extracellular Ca^2+ (in words) (α9α10 nAChR): potentiated by sub-millimolar Ca^2+ concentrations
- ACh response, % of responses at […] Ca^2+ (α9α10 nAChR; 0.5 mM Ca^2+ (maximum)): 142.98 ± 10.12%
- ACh response, % of responses at […] Ca^2+ (α9α10 nAChR; nominally zero Ca^2+): 16.79 ± 6.47%
- modulation of ACh-evoked responses by extracellular Ca^2+ (in words) (α9α10^α9Nt–TM2TM3loop; 5 µM ACh): only blocked by increasing Ca^2+ concentrations
- ACh response, % of response at […] Ca^2+ (α9α10^α9Nt–TM2TM3loop; 3 mM Ca^2+, 5 µM ACh): 108.1 ± 10.7%
- 3 / 0 Ca^2+ ratio of response (α9α10^α9Nt–TM2TM3loop; +40 mV, 5 µM ACh): 1.2 ± 0.3
- 3 / 0 Ca^2+ ratio of response (α9α10^α9Nt–TM2TM3loop; -90 mV, 5 µM ACh): 0.20 ± 0.03
- IC50 (α9α10^α9Nt–TM2TM3loop; read-out: Ca^2+ IC50, block of responses to 5 µM ACh, -90 mV): 500 ± 100 µM
- ACh response, % of response at […] Ca^2+ (α9α10^α9Nt–TM2TM3loop; zero Ca^2+, 5 µM ACh): 611.3 ± 91.2%
- ACh response amplitude normalized to 0 mM Ca^2+ (Imax) (homomeric α9 nAChR; […] Ca^2+, 100 µM ACh, Vhold -70, homomeric α9): 5.63 ± 0.58%
- modulation of ACh-evoked responses by extracellular Ca^2+ (in words) (homomeric α9 nAChR; rat α9 nAChRs): only blocked by this ion
- IC50 (homomeric α9 nAChR; read-out: Ca^2+ IC50 (50% of response block), homomeric α9, -70 mV): 100 ± 10 µM
- modulation of ACh-evoked responses by extracellular Ca^2+ (in words) (α9α10E287Q; 20 µM ACh): not potentiated by Ca^2+
- ACh response, % of response at […] Ca^2+ (α9α10E287Q; 3 mM Ca^2+, 20 µM ACh): 67.6 ± 5.6%
- 3 / 0 Ca^2+ ratio of response (α9α10E287Q; +40 mV, 20 µM ACh): 0.48 ± 0.04
- 3 / 0 Ca^2+ ratio of response (α9α10E287Q; -90 mV, 20 µM ACh): 0.26 ± 0.02
- IC50 (α9α10E287Q; read-out: Ca^2+ IC50, block of responses to 20 µM ACh): 300 ± 100 µM
- ACh response, % of response at […] Ca^2+ (α9α10E287Q; zero Ca^2+, 20 µM ACh): 320.7 ± 97.4%
- modulation of ACh-evoked responses by extracellular Ca^2+ (in words) (α9α10^α9Nt): potentiated by Ca^2+ up to 0.2 mM and blocked by higher concentrations
- ACh response, % of response at […] Ca^2+ (α9α10^α9Nt; 0.2 mM Ca^2+): 225.8 ± 18.9%
- ACh response, % of response at […] Ca^2+ (α9α10^α9Nt; 3 mM Ca^2+): 64.9 ± 5.9%
- 0.2 / 0 Ca^2+ ratio of response amplitudes (α9α10^α9Nt; +40 mV): 2.5 ± 0.3
- 0.2 / 0 Ca^2+ ratio of response amplitudes (α9α10^α9Nt; -90 mV): 2.1 ± 0.4
- ACh response, % of response at […] Ca^2+ (α9α10^α9Nt; nominally zero Ca^2+): 115.2 ± 27.3%
- modulation of ACh-evoked responses by extracellular Ca^2+ (in words) (α9α10^α9Nt–TM1TM2loop): potentiated by Ca^2+ up to 0.2 mM and blocked by higher concentrations
- ACh response, % of response at […] Ca^2+ (α9α10^α9Nt–TM1TM2loop; 0.2 mM Ca^2+): 358.3 ± 32.4%
- ACh response, % of response at […] Ca^2+ (α9α10^α9Nt–TM1TM2loop; 3 mM Ca^2+): 73.5 ± 9.3%
- 0.2 / 0 Ca^2+ ratio of response amplitudes (α9α10^α9Nt–TM1TM2loop; +40 mV): 5.9 ± 2.6
- 0.2 / 0 Ca^2+ ratio of response amplitudes (α9α10^α9Nt–TM1TM2loop; -90 mV): 5.4 ± 2.4
- ACh response, % of response at […] Ca^2+ (α9α10^α9Nt–TM1TM2loop; nominally zero Ca^2+): 95.2 ± 18.8%
- modulation of ACh-evoked responses by extracellular Ca^2+ (in words) (α9α10^α9Nt–TM2): potentiated by Ca^2+ up to 0.2 mM and blocked by higher concentrations
- ACh response, % of response at […] Ca^2+ (α9α10^α9Nt–TM2; 0.2 mM Ca^2+): 322.0 ± 40.0%
- ACh response, % of response at […] Ca^2+ (α9α10^α9Nt–TM2; 3 mM Ca^2+): 69.5 ± 7.6%
- 0.2 / 0 Ca^2+ ratio of response amplitudes (α9α10^α9Nt–TM2; +40 mV): 2.8 ± 0.4
- 0.2 / 0 Ca^2+ ratio of response amplitudes (α9α10^α9Nt–TM2; -90 mV): 4.1 ± 0.2
- ACh response, % of response at […] Ca^2+ (α9α10^α9Nt–TM2; nominally zero Ca^2+): 132.4 ± 27.5%
